The test system of assay [1] is Citrobacter freundii DSM-30039. Briefly: MIC microdilution, C. freundii DSM-30039. Format: cell-based. The settings on record: Citrobacter freundii, DSM30039. The procedure:
(§1) Indicator strains used in susceptibility assays were either part of our strain collection or purchased from the German Collection of Microorgansims and Cell Cultures (DSMZ) or from the American Type Culture Collection (ATCC). E. coli strain WT and corresponding E. coli mutants were kindly provided by Prof. Dr. P. Heisig, Pharmaceutical Biology and Microbiology, University of Hamburg. E. coli strains JW0401-1 (WT) and Δtsx were obtained from the CGSC collection.
(§2) MIC values were determined in standardized microdilution assays. Overnight cultures were diluted in the appropriate growth medium to achieve an inoculum of 10^4-10^6 cfu/mL. Yeasts were grown in Myc medium (1% phytone peptone, 1% glucose, 50 mM HEPES, pH 7.0), S. pneumonia and Enterococcus spp. in tryptic soy broth (TSB: 1.7% peptone casein, 0.3% peptone soymeal, 0.25% glucose, 0.5% NaCl, 0.25% K2HPO4; pH 7.3); M. smegmatis in Middlebrook 7H9 medium supplemented with 10% Middlebrook ADC enrichment and 2 ml/I glycerol). All other listed bacteria were grown in Müller-Hinton broth (0.2% beef infusion solids, 1.75% casein hydrolysate, 0.15% starch, pH 7.4). Cystobactamides and reference drugs were added directly to the cultures in sterile 96-well plates as duplicates and serial dilutions were prepared. Microorganisms were grown on a microplate shaker (750 rpm, 30-37° C., 18-48 h), except S. pneumonia, which was grown at non-shaking conditions (37° C., 5% CO2, 18 h). Growth inhibition was assessed by visual inspection and the MIC was defined as the lowest concentration of compound that inhibited visible growth.
In general terms: Dilution methods test growth across graded concentrations, often in twofold steps.

Another assay concerns E. coli DSM-1116. The experiment in a line: MIC microdilution, E. coli DSM-1116. Format: cell-based, Escherichia coli. The settings on record: Escherichia coli, DSM1116. The procedure:
as §1, §2

Assay [2] concerns E. coli DSM-26863 (tolC3). Briefly: MIC microdilution, E. coli DSM-26863 (tolC3). The class given is cell-based, Escherichia coli. The settings on record: Escherichia coli. The procedure:
as §1, §2

In a further assay the test system is E. coli JW0401-1 (WT). Briefly: MIC microdilution, E. coli JW0401-1 (WT). The class given is cell-based, Escherichia coli. The settings on record: Escherichia coli; Gram-negative set. The procedure:
as §1
as §2, with “Cystobactamides and reference drugs were added directly to the cultures in sterile 96-well plates as duplicates and serial dilutions were prepared. Microorganisms were grown on a microplate shaker (750 rpm, 30-37° C., 18-48 h), except S. pneumonia, which was grown at non-shaking conditions (37° C., 5% CO2, 18 h).” left out

The subject of the next assay is E. coli Δtsx. The experiment in a line: MIC microdilution, E. coli Δtsx. The settings on record: Gram-negative set. Format: cell-based, Escherichia coli. On the procedure:
as §1
as §2, with “Cystobactamides and reference drugs were added directly to the cultures in sterile 96-well plates as duplicates and serial dilutions were prepared. Microorganisms were grown on a microplate shaker (750 rpm, 30-37° C., 18-48 h), except S. pneumonia, which was grown at non-shaking conditions (37° C., 5% CO2, 18 h).” left out

Assay [3] has as its system E. coli WT-3 [gyrA(S83L, D87G)]. The experiment in a line: MIC microdilution, E. coli WT-3 [gyrA(S83L, D87G)]. The class given is cell-based, Escherichia coli. The settings on record: Escherichia coli. The procedure:
as §1, §2

The subject of assay [4] is Escherichia coli MI-4 [gyrA(S83L), parC(S80I)]. Briefly: MIC microdilution, E. coli MI-4 [gyrA(S83L), parC(S80I)]. The settings on record: read-out: MIC Escherichia coli MI-4 [gyrA(S83L), parC(S80I)]. Format: cell-based. The procedure:
as §1
as §2, with “Cystobactamides and reference drugs were added directly to the cultures in sterile 96-well plates as duplicates and serial dilutions were prepared. Microorganisms were grown on a microplate shaker (750 rpm, 30-37° C., 18-48 h), except S. pneumonia, which was grown at non-shaking conditions (37° C., 5% CO2, 18 h).” left out

Assay [5] relates to Enterobacter cloacae DSM-30054. The experiment in a line: MIC microdilution, Enterobacter cloacae DSM-30054. The settings on record: Enterobacter cloacae, DSM30054, read-out: MIC Enterobacter cloacae DSM-30054. Format: cell-based. On the procedure:
Dr. P. Heisig, Pharmaceutical Biology and Microbiology, University of Hamburg.
Overnight cultures were diluted in the appropriate growth medium to achieve an inoculum of 10^4-10^6 cfu/mL. […] Cystobactamides and reference drugs were added directly to the cultures in sterile 96-well plates as duplicates and serial dilutions were prepared. Microorganisms were grown on a microplate shaker (750 rpm, 30-37° C., 18-48 h), except S. pneumonia, which was grown at non-shaking conditions (37° C., 5% CO2, 18 h). Growth inhibition was assessed by visual inspection and the MIC was defined as the lowest concentration of compound that inhibited visible growth.

For assay [6], the system named is Klebsiella pneumoniae DSM-30104. The experiment in a line: MIC microdilution, Klebsiella pneumoniae DSM-30104. Format: cell-based. The procedure:
as §1
as §2, with “Cystobactamides and reference drugs were added directly to the cultures in sterile 96-well plates as duplicates and serial dilutions were prepared. Microorganisms were grown on a microplate shaker (750 rpm, 30-37° C., 18-48 h), except S. pneumonia, which was grown at non-shaking conditions (37° C., 5% CO2, 18 h).” left out

Assay [7] concerns Pseudomonas aeruginosa DSM-46316 (ESBL). The experiment in a line: MIC microdilution, P. aeruginosa DSM-46316 (ESBL). The class given is cell-based. The settings on record: Pseudomonas aeruginosa. On the procedure: as §1, §2
Assay [8] has as its system Staphylococcus aureus ATCC29213. Briefly: MIC microdilution, Staphylococcus aureus ATCC29213. The class given is cell-based. The settings on record: ATCC29213, read-out: MIC Staphylococcus aureus ATCC29213. On the procedure: as §1
as §2, with “Cystobactamides and reference drugs were added directly to the cultures in sterile 96-well plates as duplicates and serial dilutions were prepared. Microorganisms were grown on a microplate shaker (750 rpm, 30-37° C., 18-48 h), except S. pneumonia, which was grown at non-shaking conditions (37° C., 5% CO2, 18 h).” left out

Assay [9] has as its system Candida albicans DSM-1665. Briefly: MIC microdilution, Candida albicans DSM-1665. The class given is cell-based. On the procedure: as §1
as §2, with “Cystobactamides and reference drugs were added directly to the cultures in sterile 96-well plates as duplicates and serial dilutions were prepared. Microorganisms were grown on a microplate shaker (750 rpm, 30-37° C., 18-48 h), except S. pneumonia, which was grown at non-shaking conditions (37° C., 5% CO2, 18 h).” left out

In a further assay the test system is Pichia anomala DSM-6766. Briefly: MIC microdilution, Pichia anomala DSM-6766. The class given is cell-based. The settings on record: Hansenula anomala. On the procedure: as §1
as §2, with “Cystobactamides and reference drugs were added directly to the cultures in sterile 96-well plates as duplicates and serial dilutions were prepared. Microorganisms were grown on a microplate shaker (750 rpm, 30-37° C., 18-48 h), except S. pneumonia, which was grown at non-shaking conditions (37° C., 5% CO2, 18 h).” left out

A further assay has as its target T1, E. coli gyrase (Escherichia coli, UniProt P0AES4+P0AES6).
T1 construct: purchased Inspiralis, Norwich, UK
Briefly: E. coli gyrase DNA supercoiling assay. The settings on record: read-out: IC50 Ec gyrase (sc). Format: biochemical. The procedure:
(§3) To test the anti-gyrase activity of cystobactamides, commercial E. coli and P. aeruginosa gyrase supercoiling kits (Inspiralis, Norwich, UK) were used. For standard reactions 0.5 μg relaxed plasmid were mixed with 1 unit gyrase in 1× reaction buffer (see kit manual) and incubated for 30 min at 37° C. The reactions were quenched by the addition of DNA gel loading buffer containing 10% (w/v) SDS. The samples were separated on 1% (w/v) agarose gels and DNA was visualized using EtBr. All natural products stock solutions and dilutions were prepared in 100% DMSO and added to the supercoiling reactions giving a final DMSO concentration of 2% (v/v).

Another assay deals with T2, P. aeruginosa gyrase (Pseudomonas aeruginosa, UniProt P48372+Q9I7C2).
T2 construct: purchased Inspiralis, Norwich, UK
The experiment in a line: P. aeruginosa gyrase DNA supercoiling assay. Format: biochemical. The settings on record: read-out: IC50 Pa gyrase (sc). On the procedure:
as §3

Assay [10] concerns Escherichia coli (TolC-deficient). The experiment in a line: MIC microdilution, E. coli (TolC-deficient). Format: cell-based. The settings on record: Escherichia coli, read-out: MIC Escherichia coli (TolC-deficient). The procedure:
as §1
as §2, with “Cystobactamides and reference drugs were added directly to the cultures in sterile 96-well plates as duplicates and serial dilutions were prepared. Microorganisms were grown on a microplate shaker (750 rpm, 30-37° C., 18-48 h), except S. pneumonia, which was grown at non-shaking conditions (37° C., 5% CO2, 18 h).” left out

Where [11] appears, read: Gram-negative set, read-out: MIC C. freundii DSM-30039.
[12] abbreviates: larger panel, read-out: MIC Citrobacter freundii DSM-30039.
The mark [13] stands for this setting: Gram-negative set, read-out: MIC E. coli DSM-1116.
Where [14] appears, read: larger panel, read-out: MIC Escherichia coli DSM-1116.
[15] abbreviates: DSM26863, read-out: MIC E. coli DSM-26863 (tolC3).
[16] abbreviates: DSM26863, read-out: MIC Escherichia coli DSM-26863 (tolC3).
Where [17] appears, read: read-out: MIC E. coli WT-3 [gyrA(S83L, D87G)].
The mark [18] stands for this setting: read-out: MIC Escherichia coli WT-3 [gyrA(S83L, D87G)].

Converted amounts (≈) assume the structure as drawn. Read-outs that look alike come from different tables or passages of the source.

In general, MIC refers to the lowest concentration that inhibits growth of the organism. As a reminder, the IC50 is the concentration that gives 50% inhibition. `COC(C(N)=O)C(NC(=O)c1ccc(NC(=O)c2ccc([N+](=O)[O-])cc2)cc1)C(=O)Nc1ccc(C(=O)Nc2ccc(C(=O)Nc3ccc(C(=O)O)cc3OC(C)C)c(O)c2OC(C)C)cc1` (stereo not drawn) [Cys 919-2]: the minimal inhibitory concentration (MIC) in assay [1] (setting [11]) was 1 µg/mL (≈ 1.09 µM); in assay [1] (setting [12]), 1 µg/mL (≈ 1.09 µM); in the assay with E. coli DSM-1116 (setting [13]), 0.5 µg/mL (≈ 0.544 µM); in the assay on E. coli DSM-1116 (setting [14]), 1 µg/mL (≈ 1.09 µM); in [2] (setting [15]), 0.25 µg/mL (≈ 0.272 µM); in assay [2] (setting [16]), 0.5 to 1 µg/mL (≈ 0.544 to 1.09 µM). Also, the minimal inhibitory concentration (MIC) is 1 µg/mL (≈ 1.09 µM) against E. coli JW0401-1 (WT); 64 µg/mL (≈ 69.6 µM) in assay [3] (setting [17]); 16 to 32 µg/mL (≈ 17.4 to 34.8 µM) in [3] (setting [18]); 2 to 4 µg/mL (≈ 2.17 to 4.35 µM) in [4]; over 64 µg/mL in assay [5]; over 64 µg/mL in assay [6] (DSM30104, read-out: MIC Klebsiella pneumoniae DSM-30104). Besides, the minimum inhibitory concentration (MIC) in [7] (DSM46316, read-out: MIC Pseudomonas aeruginosa DSM-46316 (ESBL)) was over 64 µg/mL; in [8], 0.1 µg/mL (≈ 0.109 µM); in assay [9] (DSM1665, read-out: MIC Candida albicans DSM-1665) it was over 64 µg/mL; with Pichia anomala DSM-6766 (DSM6766, read-out: MIC Pichia anomala DSM-6766) it was over 64 µg/mL. In addition, the “MIC E. coli Δtsx” value with E. coli Δtsx was 1 µg/mL (≈ 1.09 µM). Moreover, the IC50 at E. coli gyrase stood at 670 nM; on P. aeruginosa gyrase, 340 nM.
As to `O=C(O)c1cn(C2CC2)c2cc(N3CCNCC3)c(F)cc2c1=O` [CP, Ciprofloxacin, reference compound], the MIC is 0.003 µg/mL (≈ 0.00905 µM) in assay [1] (setting [11]); 0.003 µg/mL (≈ 0.00905 µM) in assay [1] (setting [12]); 0.01 µg/mL (≈ 0.0302 µM) with E. coli DSM-1116 (setting [13]); 0.013 µg/mL (≈ 0.0392 µM) in the assay on E. coli DSM-1116 (setting [14]); at most 0.003 µg/mL in assay [2] (setting [15]); 0.003 µg/mL (≈ 0.00905 µM) in assay [2] (setting [16]). Besides, the minimal inhibitory concentration (MIC) was 0.8 µg/mL (≈ 2.41 µM) in [3] (setting [17]); 0.8 to 1.6 µg/mL (≈ 2.41 to 4.83 µM) in assay [3] (setting [18]); 0.8 µg/mL (≈ 2.41 µM) in assay [4]; 0.01 µg/mL (≈ 0.0302 µM) in [10]; 0.025 µg/mL (≈ 0.0754 µM) in assay [6] (DSM30104, larger panel, read-out: MIC Klebsiella pneumoniae DSM-30104); 0.1 µg/mL (≈ 0.302 µM) in assay [7] (DSM46316, larger panel, read-out: MIC Pseudomonas aeruginosa DSM-46316 (ESBL)). Further, the minimal inhibitory concentration (MIC) in [9] (DSM1665, larger panel, read-out: MIC Candida albicans DSM-1665) is over 6.4 µg/mL; in the assay with Pichia anomala DSM-6766 (DSM6766, larger panel, read-out: MIC Pichia anomala DSM-6766), over 6.4 µg/mL.

These data come from US10519099B2, “Cystobactamides” (priority 2014, dated 2019).
